Laboratory results: article PMC12448936, “Odorant Receptors Mediating Avoidance of Toxic Mustard Oils in Drosophila melanogaster Are Expanded in Herbivorous Relatives” (Molecular Biology and Evolution, 2025)
Like-named read-outs stand apart in the source and are kept apart here.

Assays:
S. flava Or42a4 = biological target: T1, S. flava Or42a4 (Scaptomyza flava, UniProt Z9LG74I6Y6); assay: single sensillum recording, at1 empty neuron; assay type: cell-based
T1 construct: full coding region (UTRs removed) in UAST-attB, attP40 site; D. melanogaster at1 OSNs (Or67d null), host Orco; with Odorant receptor coreceptor (Drosophila melanogaster, endogenous in host neuron)
T1 sequence (Z9LG74I6Y6 1-404): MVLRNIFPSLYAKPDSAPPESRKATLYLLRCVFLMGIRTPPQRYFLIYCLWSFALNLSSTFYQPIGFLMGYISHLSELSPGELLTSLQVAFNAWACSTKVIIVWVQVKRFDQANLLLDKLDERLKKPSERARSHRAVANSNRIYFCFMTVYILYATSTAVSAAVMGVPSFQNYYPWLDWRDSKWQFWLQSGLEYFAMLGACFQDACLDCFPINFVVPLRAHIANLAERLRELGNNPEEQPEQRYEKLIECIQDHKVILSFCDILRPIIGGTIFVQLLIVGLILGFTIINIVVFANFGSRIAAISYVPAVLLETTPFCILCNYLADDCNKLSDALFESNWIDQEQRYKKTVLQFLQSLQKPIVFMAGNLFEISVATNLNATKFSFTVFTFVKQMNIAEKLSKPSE
T1 sequence (Q9VNB5 1-486 partner): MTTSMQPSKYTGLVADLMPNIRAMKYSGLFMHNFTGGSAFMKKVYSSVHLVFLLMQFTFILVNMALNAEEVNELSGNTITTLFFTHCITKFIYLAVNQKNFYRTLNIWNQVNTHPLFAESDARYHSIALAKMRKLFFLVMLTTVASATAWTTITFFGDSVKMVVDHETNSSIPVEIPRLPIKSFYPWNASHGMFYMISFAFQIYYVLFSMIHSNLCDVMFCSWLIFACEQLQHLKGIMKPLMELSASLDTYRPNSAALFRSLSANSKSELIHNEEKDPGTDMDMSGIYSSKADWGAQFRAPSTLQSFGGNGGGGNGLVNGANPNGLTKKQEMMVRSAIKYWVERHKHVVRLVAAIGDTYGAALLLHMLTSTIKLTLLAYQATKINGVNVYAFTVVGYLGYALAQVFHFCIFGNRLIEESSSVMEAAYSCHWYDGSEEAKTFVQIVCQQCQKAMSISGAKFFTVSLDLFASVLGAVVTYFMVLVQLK

D. melanogaster Or42a = biological target: T2, D. melanogaster Or42a (Drosophila melanogaster, UniProt Q9V9I2); assay: single sensillum recording, at1 empty neuron; assay type: cell-based; conditions: bound given for three odorants together
T2 construct: full length UAS transgene in D. melanogaster at1 OSNs (Or67d-Gal4 null background), endogenous Orco; EC50 from native pb1a OSNs; with Odorant receptor coreceptor (Drosophila melanogaster)
T2 sequence (Q9V9I2 1-406): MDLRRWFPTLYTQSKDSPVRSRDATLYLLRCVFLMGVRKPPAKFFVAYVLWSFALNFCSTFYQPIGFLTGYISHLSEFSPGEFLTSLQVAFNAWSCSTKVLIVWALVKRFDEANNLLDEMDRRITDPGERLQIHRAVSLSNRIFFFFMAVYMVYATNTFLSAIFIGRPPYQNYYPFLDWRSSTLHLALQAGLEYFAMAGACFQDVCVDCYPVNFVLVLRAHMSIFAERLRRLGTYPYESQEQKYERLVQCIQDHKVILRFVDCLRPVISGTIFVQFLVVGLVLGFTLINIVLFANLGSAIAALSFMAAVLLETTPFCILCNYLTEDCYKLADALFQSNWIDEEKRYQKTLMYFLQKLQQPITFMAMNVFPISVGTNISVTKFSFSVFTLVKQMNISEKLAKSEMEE
T2 sequence (Q9VNB5 1-486 partner): T1 sequence (Q9VNB5 1-486 partner)

S. pallida Or42a2 = biological target: T3, S. pallida Or42a2 (Scaptomyza pallida, UniProt Z9QWX1R862); assay: single sensillum recording, at1 empty neuron; assay type: cell-based; conditions: bound given for three odorants together
T3 construct: full coding region in UAST-attB, attP40 site; D. melanogaster at1 OSNs (Or67d null), host Orco; with Odorant receptor coreceptor (Drosophila melanogaster, endogenous in host neuron)
T3 sequence (Z9QWX1R862 1-406): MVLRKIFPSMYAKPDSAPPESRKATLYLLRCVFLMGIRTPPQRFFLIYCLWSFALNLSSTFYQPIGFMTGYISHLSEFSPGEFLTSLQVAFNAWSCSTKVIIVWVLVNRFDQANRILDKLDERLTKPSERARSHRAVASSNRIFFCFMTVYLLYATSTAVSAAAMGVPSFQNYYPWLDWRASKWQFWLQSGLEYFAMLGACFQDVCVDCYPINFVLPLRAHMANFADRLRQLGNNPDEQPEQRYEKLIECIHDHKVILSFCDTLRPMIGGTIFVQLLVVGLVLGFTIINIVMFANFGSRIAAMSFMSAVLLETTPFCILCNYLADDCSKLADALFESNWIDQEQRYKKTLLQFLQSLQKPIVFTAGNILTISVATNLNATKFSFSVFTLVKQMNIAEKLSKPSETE
T3 sequence (Q9VNB5 1-486 partner): T1 sequence (Q9VNB5 1-486 partner)

S. flava Or42a3 [1] = biological target: T4, S. flava Or42a3 (Scaptomyza flava, UniProt Z9ZJ76RJY6); assay: single sensillum recording, at1 empty neuron; assay type: cell-based
T4 construct: full coding region (UTRs removed) in UAST-attB, attP40 site; D. melanogaster at1 OSNs (Or67d null), host Orco; with Odorant receptor coreceptor (Drosophila melanogaster, endogenous in host neuron)
T4 sequence (Z9ZJ76RJY6 1-407): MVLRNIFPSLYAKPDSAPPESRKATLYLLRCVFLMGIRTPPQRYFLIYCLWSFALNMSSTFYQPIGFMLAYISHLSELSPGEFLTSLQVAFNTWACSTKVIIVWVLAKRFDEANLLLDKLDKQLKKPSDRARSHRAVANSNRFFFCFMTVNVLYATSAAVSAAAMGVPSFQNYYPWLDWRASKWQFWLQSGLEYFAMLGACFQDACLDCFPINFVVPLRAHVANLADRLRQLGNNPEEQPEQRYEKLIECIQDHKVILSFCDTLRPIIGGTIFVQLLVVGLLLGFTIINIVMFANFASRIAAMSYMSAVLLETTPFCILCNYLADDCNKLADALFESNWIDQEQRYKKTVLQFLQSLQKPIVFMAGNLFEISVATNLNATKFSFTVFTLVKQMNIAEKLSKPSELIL
T4 sequence (Q9VNB5 1-486 partner): T1 sequence (Q9VNB5 1-486 partner)

S. flava Or42a2 = biological target: T5, S. flava Or42a2 (Scaptomyza flava, UniProt Z9B9G2NIU8); assay: single sensillum recording, at1 empty neuron; assay type: cell-based; conditions: volatile stimulus 1:100 vol/vol in mineral oil
T5 construct: full coding region (UTRs removed) in UAST-attB, attP40 site; D. melanogaster at1 OSNs (Or67d null), host Orco; with Odorant receptor coreceptor (Drosophila melanogaster, endogenous in host neuron)
T5 sequence (Z9B9G2NIU8 1-404): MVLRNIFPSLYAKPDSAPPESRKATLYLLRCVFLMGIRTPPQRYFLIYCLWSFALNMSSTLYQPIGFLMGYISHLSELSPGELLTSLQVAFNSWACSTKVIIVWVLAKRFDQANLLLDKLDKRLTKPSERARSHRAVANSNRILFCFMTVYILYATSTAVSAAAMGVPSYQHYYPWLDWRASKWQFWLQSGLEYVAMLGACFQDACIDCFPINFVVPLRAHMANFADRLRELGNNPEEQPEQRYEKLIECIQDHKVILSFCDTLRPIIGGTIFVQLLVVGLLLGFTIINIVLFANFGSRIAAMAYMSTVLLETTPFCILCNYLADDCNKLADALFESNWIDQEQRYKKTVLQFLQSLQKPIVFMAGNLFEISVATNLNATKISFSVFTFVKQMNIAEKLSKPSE
T5 sequence (Q9VNB5 1-486 partner): T1 sequence (Q9VNB5 1-486 partner)

S. flava Or42a3 [2] = conditions: heterozygous UAS transgene, Fig. 8 legend prints S301P
[3] = volatile stimulus 1:100 vol/vol in mineral oil
[4] = volatile stimulus 1:100 vol/vol in DMSO

Compound | spikes/s (S. flava Or42a4; [3]) | spikes/s (D. melanogaster Or42a; [3]) [spikes/s] | spikes/s (S. pallida Or42a2; [3]) [spikes/s] | spikes/s (S. flava Or42a3 [1]; [3]) | also measured
CCC/C=C/C=O [trans-2-hexenal] | S. flava Or42a3 or S. flava Or42a4 were also very sensitive to AITC and trans-2-hexenal | > 79 | > 96 | S. flava Or42a3 or S. flava Or42a4 were also very sensitive to AITC and trans-2-hexenal | –
C=CCN=C=S [AITC, allyl isothiocyanate] | S. flava Or42a3 or S. flava Or42a4 were also very sensitive to AITC and trans-2-hexenal | > 79 | > 96 | S. flava Or42a3 or S. flava Or42a4 were also very sensitive to AITC and trans-2-hexenal | spikes/s (S. flava Or42a2): S. flava Or42a2 was only activated by AITC
CCCCN=C=S [BITC, butyl ITC] | – | – | – | – | spikes/s (S. flava Or42a3 [2]; [3]): The A181D S307P variant and the two S. flava paralogs showed similar moderate responses to BITC
CCC1CCC(=O)O1 (stereo not drawn) [γ-hexalactone] | – | – | – | – | spikes/s (S. flava Or42a4; [4]): < 10 spikes/s; spikes/s (D. melanogaster Or42a; [4]): > 79 spikes/s; spikes/s (S. pallida Or42a2; [4]): > 96 spikes/s; spikes/s (S. flava Or42a3 [1]; [4]): S. flava Or42a3 showed a moderate response to γ-hexalactone; spikes/s (S. flava Or42a3 [2]; [4]): at1 population responses to BITC (white bars) and to γ-hexalactone (gray bars)
